In patent US20230219965A1 (KSQ Therapeutics, Inc., priority 2020, published 2023):
Where two headings read alike, the source gives them in different places.

Tests used:
[1] = Liver microsomal metabolic stability, rat liver microsomes (RLM); conditions: 1 μM compound, 1 mg/mL microsomes, NADPH; for half-life at 1 μM: rat, liver microsomes, t1/2 (min) in RLM
Procedure: Samples were prepared by adding 222.5 μL of a master solution (100 mM phosphate buffer and 1 mg/mL liver microsomes (HLM or RLM)) and 25 μL of a 10 mM NADPH solution to incubation plates, which were then warmed for 10 min. Each compound was separately dissolved in DMSO to prepare 10 mM stock solutions, which were then diluted to 100 μM with acetonitrile. A reaction was started by adding 2.5 μL of the 100 μM solution of each compound to separate incubation plates such that the final concentration of for each compound in each plate was 1 μM.
25 μL aliquots of each sample were taken at 0.5, 5, 10, 15, 20 and 30 minutes, and the reaction was stopped by adding 5 volumes of cold acetonitrile with IS (100 nM alprazolam, 200 nM caffeine and 100 nM tolbutamide). The samples were then centrifuged at 3,220 G for 30 minutes, and 100 μL of the supernatant fluid was mixed with 100 μL of ultra-pure H2O.
The samples were then analyzed by LC-MS/MS. Peak areas were determined from extracted ion chromatograms. Slope values (k) were determined by linear regression of the natural logarithm of the remaining percentage of the compound vs. incubation time curve. The in vitro half-life (in vitro t1/2) was determined from the slope value using the following equation:

[2] = ADME solubility determination in PBS at pH 2.0 and pH 7.4; type: physicochemical; conditions: for solubility at 24 h: phosphate buffered saline, 25 °C, thermodynamic from solid
In short: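 Dried 10 mM DMSO stock residues taken up in PBS pH 7.4 or pH 2.0, shaken 24 h at 25° C. After centrifugation, supernatant quantified by LC-MS/MS against a standard of known concentration, with a dilution factor applied.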

[3] = Liver microsomal metabolic stability, human liver microsomes (HLM); conditions: for half-life at 1 μM: human, liver microsomes
[4] = system: Ub-PCNA levels in the nucleus of ES2 cells (USP1 activity); test: ES2 Ub-PCNA immunofluorescence (IF) assay; type: cell-based; conditions: ES2 cells, 3 hours, Ub-PCNA immunofluorescence, read-out: USP1 IC50 (Ub-PCNA)
In short: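 Cells plated overnight, then compound-treated for 3 h at 37° C (0.3% DMSO final), methanol-fixed and stained with anti-Ub-PCNA plus DAPI. Per-nucleus Ub-PCNA intensity imaged; cells above the 95% cutoff of untreated wells counted as positive, and percent positive cells used to derive AC50.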

[5] = target: USP1/UAF1 enzyme (Homo sapiens, UniProt O94782); test: USP1/UAF1 deubiquitination assay (ubiquitin-rhodamine 110 substrate); type: biochemical; conditions: read-out: USP1 IC50 (Ub-Rho)
In short: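 0.05 nM USP1/UAF1 was preincubated 10 min with compounds (dose response from 10 μM) in 50 mM Tris-HCl pH 7.8, 0.5 mM EDTA, 0.01% BSA, 1 mM DTT, 0.01% Tween-20. 150 nM ubiquitin-rhodamine 110 started the reaction, read kinetically 30 min at Ex480/Em540; IC50 by four-parameter fit versus no-enzyme and DMSO controls.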

[6] = pH 2, aqueous buffer, PBS pH 2.0, 25° C., read-out: Solubility at pH 2.0
[7] = pH 7.4, aqueous buffer, PBS pH 7.4, 25° C., read-out: Solubility at pH 7.4

Sequence of USP1/UAF1 enzyme (O94782 whole entry): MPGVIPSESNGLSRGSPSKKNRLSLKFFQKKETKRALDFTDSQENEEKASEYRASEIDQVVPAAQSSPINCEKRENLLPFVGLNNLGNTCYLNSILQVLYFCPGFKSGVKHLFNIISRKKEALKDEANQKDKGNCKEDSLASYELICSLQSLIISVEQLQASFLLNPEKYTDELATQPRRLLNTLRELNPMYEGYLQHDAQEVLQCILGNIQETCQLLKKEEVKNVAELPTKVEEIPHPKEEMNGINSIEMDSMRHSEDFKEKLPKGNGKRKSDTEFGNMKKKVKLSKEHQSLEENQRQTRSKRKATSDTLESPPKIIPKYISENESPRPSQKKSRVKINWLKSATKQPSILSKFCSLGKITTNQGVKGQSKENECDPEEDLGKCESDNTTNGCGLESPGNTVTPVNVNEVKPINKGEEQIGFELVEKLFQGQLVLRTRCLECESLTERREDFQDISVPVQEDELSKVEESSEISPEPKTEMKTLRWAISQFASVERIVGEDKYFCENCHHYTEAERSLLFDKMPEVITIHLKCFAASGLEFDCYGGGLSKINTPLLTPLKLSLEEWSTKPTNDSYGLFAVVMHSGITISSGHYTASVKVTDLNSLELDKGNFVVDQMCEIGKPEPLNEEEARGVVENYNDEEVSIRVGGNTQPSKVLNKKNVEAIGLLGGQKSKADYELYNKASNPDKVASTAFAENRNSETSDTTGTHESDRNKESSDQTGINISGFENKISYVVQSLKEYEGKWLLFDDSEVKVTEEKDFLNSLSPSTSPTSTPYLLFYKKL
Sequence of USP1/UAF1 enzyme (Q8TAF3 whole entry partner): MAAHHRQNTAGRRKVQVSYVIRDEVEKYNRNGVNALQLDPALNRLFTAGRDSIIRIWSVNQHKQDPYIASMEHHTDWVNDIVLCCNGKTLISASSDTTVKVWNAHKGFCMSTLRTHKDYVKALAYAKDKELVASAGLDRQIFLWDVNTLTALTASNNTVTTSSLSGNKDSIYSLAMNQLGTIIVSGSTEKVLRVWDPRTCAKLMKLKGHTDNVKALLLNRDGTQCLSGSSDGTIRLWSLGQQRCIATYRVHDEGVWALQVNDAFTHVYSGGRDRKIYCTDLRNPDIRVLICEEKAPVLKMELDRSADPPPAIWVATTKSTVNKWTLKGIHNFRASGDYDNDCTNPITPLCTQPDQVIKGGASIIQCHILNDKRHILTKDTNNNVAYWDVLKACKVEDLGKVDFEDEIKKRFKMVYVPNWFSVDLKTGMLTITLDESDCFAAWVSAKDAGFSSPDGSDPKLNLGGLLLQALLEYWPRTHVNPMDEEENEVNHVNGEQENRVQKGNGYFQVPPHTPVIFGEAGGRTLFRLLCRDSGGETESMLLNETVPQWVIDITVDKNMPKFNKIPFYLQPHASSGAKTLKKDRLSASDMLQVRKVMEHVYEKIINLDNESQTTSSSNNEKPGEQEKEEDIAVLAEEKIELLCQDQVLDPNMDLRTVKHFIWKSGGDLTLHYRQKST

Row | half-life at 1 μM [1] [min] | solubility at 24 h [2, 6] [µM] | solubility at 24 h [2, 7] [µM] | half-life at 1 μM [3] [min] | IC50 ([4]; Homo sapiens, ES-2) [nM] | IC50 [5] [nM] | t1/2 (min) in RLM [1] | Solubility at pH 2.0 (μM) ([2]; PBS pH 2.0, 25° C., 24 hours) | Solubility at pH 7.4 (μM) ([2]; PBS pH 7.4, 25° C., 24 hours) | t1/2 (min) in HLM ([3]; human liver microsomes, 1 μM compound, 1 mg/mL microsomes, NADPH) | IC50 [4] [nM] | Compound
1 | < 25 | ≥ 10 | < 10 | < 25 | 100 to 500 | < 100 |  |  |  |  |  | CC(C)Oc1cccnc1-c1ccc(CN2C(=O)CCn3nc(-c4c(Cl)cnn4C(C)C)nc32)cc1 [Example 304]
2 | < 25 | ≥ 10 | < 10 | < 25 | 100 to 500 | < 100 |  |  |  |  |  | COc1cccnc1-c1ccc(CN2C(=O)CCn3nc(-c4c(Cl)cnn4C(C)C)cc32)cc1 [Example 305]
3 | < 25 | < 10 | < 10 | < 25 | 100 to 500 | < 100 |  |  |  |  |  | CCOc1cccnc1-c1ccc(CN2C(=O)CCn3nc(-c4c(Cl)cnn4C(C)C)cc32)cc1Cl [Example 307]
4 | < 25 | ≥ 10 | < 10 | < 25 | 100 to 500 | < 100 |  |  |  |  |  | COc1ccc(C)nc1-c1ccc(CN2C(=O)CCn3nc(-c4c(Cl)cnn4C(C)C)cc32)cc1Cl [Example 309]

Second part, the molecule before the results:

Row | Compound | half-life at 1 μM [1] [min] | solubility at 24 h [2, 6] [µM] | solubility at 24 h [2, 7] [µM] | half-life at 1 μM [3] [min] | IC50 ([4]; Homo sapiens, ES-2) [nM] | IC50 [5] [nM] | t1/2 (min) in RLM [1] | Solubility at pH 2.0 (μM) ([2]; PBS pH 2.0, 25° C., 24 hours) | Solubility at pH 7.4 (μM) ([2]; PBS pH 7.4, 25° C., 24 hours) | t1/2 (min) in HLM ([3]; human liver microsomes, 1 μM compound, 1 mg/mL microsomes, NADPH) | IC50 [4] [nM]
5 | CCn1cc(C(F)(F)F)nc1-c1ccc(NC2CCCn3nc(-c4c(C#N)cnn4C(C)C)cc32)cc1F (stereo not drawn) [Example 266, 5-(4-((4-(1-ethyl-4-(trifluoromethyl)-1H-imidazol-2-yl)-3-fluorophenyl)amino)-4,5,6,7-tetrahydropyrazolo[1,5-α]pyridin-2-yl)-1-isopropyl-1H-pyrazole-4-carbonitrile] | > 25 | < 10 | < 10 | > 25 | 100 to 500 | < 100 |  |  |  |  | 
6 | CCn1cc(C(F)(F)F)nc1-c1ccc(CN2CC(O)Cn3nc(-c4c(Cl)cnn4C(C)C)cc32)cc1F (stereo not drawn) [Example 267, 2-(4-chloro-1-isopropyl-1H-pyrazol-5-yl)-4-(4-(1-ethyl-4-(trifluoromethyl)-1H-imidazol-2-yl)-3-fluorobenzyl)-4,5,6,7-tetrahydropyrazolo[1,5-α]pyrimidin-6-ol] |  |  |  |  |  | < 100 | + (“+” indicates less than 25 minutes) | + (“+” indicates less than 10 μM) | + (“+” indicates less than 10 μM) | + (“+” indicates less than 25 minutes) | < 100
7 | CCn1cc(C(F)(F)F)nc1-c1ccc(COC2CCCn3nc(-c4c(Cl)cnn4C(C)C)cc32)cc1 (stereo not drawn) [Example 270, 2-(4-chloro-1-isopropyl-1H-pyrazol-5-yl)-4-((4-(1-ethyl-4-(trifluoromethyl)-1H-imidazol-2-yl)benzyl)oxy)-4,5,6,7-tetrahydropyrazolo[1,5-α]pyridine] | < 25 | < 10 | < 10 | < 25 | < 100 | < 100 |  |  |  |  | 
8 | CC(C)n1ncc(Cl)c1-c1cc2n(n1)CCC(=O)N2Cc1ccc(-c2ncccc2OC2CC2)c(Cl)c1 [Example 290] | < 25 | ≥ 10 | < 10 | < 25 | 100 to 500 | < 100 |  |  |  |  | 
9 | CC(C)Oc1cccnc1-c1ccc(CN2C(=O)CCn3nc(-c4c(Cl)cnn4C(C)C)cc32)cc1 [Example 291] | < 25 | < 10 | < 10 | < 25 | 100 to 500 | < 100 |  |  |  |  | 
10 | COc1ccc(C(F)(F)F)nc1-c1ccc(CN2C(=O)CCn3nc(-c4c(Cl)cnn4C(C)C)cc32)cc1Cl [Example 294] | < 25 | < 10 | < 10 | > 25 | < 100 | < 100 |  |  |  |  | 
11 | CC(C)n1ncc(Cl)c1-c1cc2n(n1)CCC(=O)N2Cc1ccc(-c2ncccc2N2CCOCC2)c(Cl)c1 [Example 296] | < 25 | ≥ 10 | < 10 | < 25 | 100 to 500 | < 100 |  |  |  |  | 
